Measured values as given in patent US20100086587A1, “HARD SHELL CAPSULE FORMULATIONS” (priority 2006, published 2010).

Test: Moisture loss or gain of filled capsules exposed to a 50% RH environment until equilibrium
Assay type: physicochemical
Details: 50% R.H. environment
Experimental: An alternative method for evaluating the level of water required to provide a stable hygroscopic formulation involves the preparation of capsules containing different water contents and then quantifying moisture loss or gain when exposed to a 50% RH environment (middle of acceptable RH range for capsules 35% RH to 65% RH). Maltitol, a sugar which is also a hygroscopic excipient, was dissolved in water to produce several aqueous maltitol solutions of concentration 16, 18, 20, 22, 24, 26, 28, 30, 32, 34 and 36% water in maltitol. Both gelatin and HPMC capsules were filled with the various concentrations of solution and the capsules were sealed by banding. The capsules were then exposed to a 50% R.H environment and allowed the capsules to re-equilibrate.
Weight loss (and water loss) ceased when the capsules shell content was in equilibrium with the capsule shell and with the 50% R.H. environment. The equilibrium water content in maltitol that produced stables capsules was approximately 14% water content for gelatin capsules and approximately 13% water content for HPMC capsules.

equilibrium water content in maltitol that produced stable capsules (HPMC capsules): approximately 13% | equilibrium water content in maltitol that produced stable capsules (gelatin capsules): approximately 14%
Compound: OC[C@@H](O)[C@@H](O[C@H]1O[C@H](CO)[C@@H](O)[C@H](O)[C@H]1O)[C@H](O)[C@@H](O)CO [maltitol, Maltitol]
